For data set [1] the following is noted: cited from earlier work.
The conditions of data set [2]: rat model of hyperoxaluria; cited from earlier work.
Data set [3] in a line: Body weight, behavior and water consumption of pyridoxamine-treated rats. The class given is in vivo, Sprague-Dawley rats. How it is done:
(§1) Two month old Sprague-Dawley rats were housed individually in metabolic cages and fed standard powdered stock rations. […] To minimize possible chemical degradation of pyridoxamine, fresh solutions were prepared daily and administered in water bottles wrapped in aluminum foil.

For data set [4] the following is noted: diabetic rat model, 7 months, same dose; cited from earlier work.
Data set [5] is described as follows: Ethylene glycol (EG) rat model of experimental hyperoxaluria. The class given is in vivo. The following applies: rats given EG […] solution in drinking water; predicted result. An excerpt:
Both compounds are precursors of oxalate synthesis and their administration results in increased urinary oxalate concentration. […] The use of two different models also helps to minimize possible model-specific adverse effects. […] The results for Day-14 oxalate are known by Day 15, at which time the animals within each group (Control, EG) are pair-matched according to their Day-14 oxalate. The pyridoxamine and no-pyridoxamine groups therefore begin the pyridoxamine-treatment period with nearly identical mean and standard deviation oxalate excretion, which optimizes the sensitivity of this experimental design.

The nature of data set [6]: Urinary oxalate excretion in pyridoxamine-treated rats (oxalate oxidase method). It is filed as in vivo, Sprague-Dawley rats. The settings on record: pyridoxamine in drinking water, 1.2 μm/day/gram body weight. As to the method:
as §1
Twenty-four hour urine samples were collected under toluene (to inhibit bacterial growth) using containers with 2 M hydrochloric acid to minimize spontaneous breakdown of urinary ascorbic acid to oxalate (21). The urine samples were stored at −70° C. until further analysis. Under these conditions, frozen urine can be stored for at least 1 month with no effect on oxalate measurements (22). Collected urine samples were analyzed to determine concentrations of oxalate using the oxalate oxidase method (23). This assay is highly specific and sensitive to about 10 μM (23). Oxalate oxidase from Barley seedlings was purchased from Sigma Co. (St. Louis, Mo.). The method is based on the conversion of oxalate to hydrogen peroxide and carbon dioxide by oxalate oxidase. […] was determined enzymatically with horseradish peroxidase by oxidative coupling of 3-methyl-2-benzothiazolinone hydrazone with N,N-dimethylaniline. The resulting colored product was determined spectrophotometrically at 595 nm. The modified sample preparation procedure was used, which replaces column chromatography with a simple precipitation step (24).

The target in the next data set is T1, oxalate oxidase (Hordeum vulgare, UniProt P45850).
T1 construct: Oxalate oxidase from Barley seedlings was purchased from Sigma Co; purchased Sigma Co. (St. Louis, Mo.); host or cells: barley seedlings (natural source)
T1 sequence (P45850 1-201): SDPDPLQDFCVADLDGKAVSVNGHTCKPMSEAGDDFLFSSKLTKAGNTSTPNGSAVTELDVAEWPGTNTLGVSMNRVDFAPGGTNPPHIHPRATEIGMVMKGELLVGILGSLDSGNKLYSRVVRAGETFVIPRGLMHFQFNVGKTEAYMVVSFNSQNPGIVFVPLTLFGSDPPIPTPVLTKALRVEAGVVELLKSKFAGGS
The data set can be described thus: Interference of pyridoxamine with urinary oxalate determination by oxalate oxidase method. The settings on record: pyridoxamine added to assay mixtures, final concentration 2 mg/ml. Further details: species or system Barley.

For data set [7] the following is noted: cited from earlier work. This is another data set of the same source.

Read-outs that look alike come from different tables or passages of the source.

Turning to `O=C1N[C@H](C(=O)O)CS1` [OTZ, (L)-2-oxothiazolidine-4-carboxylate], the urinary oxalate levels entry in data set [1] (normal individuals) is on record as “decreased”. In addition, the adverse effects result in data set [1] (patients, administered for only 48 hours) was “mild to moderate adverse effects”. The urinary oxalate concentration entry in data set [2] is recorded as “decrease”.

For `Cc1ncc(CO)c(CN)c1O.Cl.Cl` [pyridoxamine, Pyridoxamine dihydrochloride], in data set [3], the “general behavior versus control group” value is reported as “no difference” and the “weight gain versus control group” value was “no difference”. The same compound came in with a Weight in data set [3] (Day 1) of 315 ± 6 grams. In data set [3] (Day 26), this compound yielded a Weight of 363 ± 16 grams. Also, the “therapeutic effect of the dose” value in data set [4] was “had therapeutic effects”. In addition, the oxalate excretion entry in data set [5] was “significantly reduce”. Also, in data set [6], the “statistical significance of the urinary oxalate difference from controls” value was “statistically different from controls after 12 days” and the “urinary oxalate levels versus controls” value is “consistently lower”. The “effect on oxalate measurements” value on oxalate oxidase is recorded as “no effect”.

For `Cc1ncc(CO)c(CO)c1O` [pyridoxine], the urinary oxalate levels result in data set [7] (stone formers, 200 mg daily) is “did not reduce”. Further, the “risk of kidney stone formation” value in data set [7] (women, 40 mg/day) was “reduced risk”.

Values taken from patent publication US6521645B2, “Methods for the treatment and prevention of urinary stone disease” (The University of Kansas Medical Center, priority 2000, dated 2003).
